Among the data in ChEMBL document CHEMBL1152479, “Synthesis and in vitro antitumor activities of novel 4-anilinoquinazoline derivatives” (Eur J Med Chem, 2009) are IC50 values, retold here.

The structures appear in SMILES notation.

In one experiment the test system is A431 (human). As to the kind of experiment: cells. The following applies: A431, 72 h.
The subject of a further experiment is MCF-7 (human). As to the kind of experiment: cells. The following applies: MCF-7, 72 h.

With `COc1cc2ncnc(Nc3ccc(OC(F)(F)F)cc3)c2cc1OCCCSc1nc2ccccc2o1`, the half-maximal inhibitory concentration (IC50) (commonly the concentration needed to halve the response being measured) in the experiment with A431 (human) was determined as 9.08 µM.

With `COc1cc2ncnc(Nc3ccc(F)c(Cl)c3)c2cc1OCCCSc1nc2ccccc2o1`, the results for the IC50 in the experiment with MCF-7 (human) and in the experiment with A431 (human) were 37 µM and 4.05 µM, respectively. In the case of `CCCCc1nc(Cl)c(C=O)n1CCCOc1cc2c(Nc3ccc(OC)cc3)ncnc2cc1OC`, it took 14 µM to reach half-maximal inhibition in the experiment on A431 (human) (IC50). `CCCCc1nc(Cl)c(C=O)n1CCCOc1cc2c(Nc3ccc(F)c(Cl)c3)ncnc2cc1OC`: the half-maximal inhibitory concentration (IC50) with A431 (human) came to 5.02 µM. The same measure, in the same setting: next, `COc1ccc(Nc2ncnc3cc(OC)c(OCCCSc4nc5ccccc5o4)cc23)cc1`: 13.1 µM.

For `CCCCc1nc(Cl)c(C=O)n1CCCOc1cc2c(Nc3cccc(C(F)(F)F)c3)ncnc2cc1OC`, the results for the IC50 in the experiment on MCF-7 (human) and with A431 (human) were 38.8 µM and 3.51 µM, respectively. `CCc1cc(Br)ccc1Nc1ncnc2cc(OC)c(OCCCSc3nc4ccccc4o3)cc12`: in the experiment with A431 (human), it took 17.2 µM to reach half-maximal inhibition (IC50).

On to `COc1cc2ncnc(Nc3cccc(C(F)(F)F)c3)c2cc1OCCCSc1nc2ccccc2o1`, for which the figures for the IC50 with MCF-7 (human) and with A431 (human) were 37.3 µM and 4.03 µM, respectively. In the experiment on A431 (human), `CCCCc1nc(Cl)c(C=O)n1CCCOc1cc2c(Nc3cccc(F)c3)ncnc2cc1OC` came in with an IC50 of 12 µM.

`CCCCc1nc(Cl)c(CO)n1CCCOc1cc2c(Nc3ccc(F)c(Cl)c3)ncnc2cc1OC` registered an IC50 with A431 (human) of 5.99 µM. Take `COc1cc2ncnc(Nc3cccc(C(F)(F)F)c3)c2cc1OCCCSc1nc2ccccc2s1`: the 50% inhibitory concentration (IC50) in the experiment with MCF-7 (human) amounted to 35.9 µM; in the experiment on A431 (human), 4.05 µM. Turning to `COc1cc2ncnc(Nc3ccc(C)cc3)c2cc1OCCCSc1nc2ccccc2s1`, the half-inhibitory concentration (IC50) with A431 (human) is 14.2 µM. In the experiment with A431 (human), `CCCCc1nc(Cl)c(CO)n1CCCOc1cc2c(Nc3ccc(OC)cc3)ncnc2cc1OC` came in with an IC50 of 20 µM. `CCCCc1nc(Cl)c(CO)n1CCCOc1cc2c(Nc3cccc(C(F)(F)F)c3)ncnc2cc1OC` gave an IC50 with A431 (human) of 8.28 µM. Against the preceding compound, the IC50 is about 2.4-fold lower.

In the case of `C#Cc1cccc(Nc2ncnc3cc(OC)c(OCCCn4c(CCCC)nc(Cl)c4C=O)cc23)c1`, in the experiment on A431 (human), the midpoint of inhibition, the IC50, lay at 10.1 µM. `CCCCc1nc(Cl)c(C=O)n1CCCOc1cc2c(Nc3ccc(Br)cc3CC)ncnc2cc1OC` had an IC50 with A431 (human) of 6.56 µM. For the compound `CCCCc1nc(Cl)c(CO)n1CCCOc1cc2c(Nc3cccc(F)c3)ncnc2cc1OC`, in the experiment with A431 (human), the IC50 turned out to be 17.7 µM.

In turn, `CCCCc1nc(Cl)c(CO)n1CCCOc1cc2c(Nc3cccc(I)c3)ncnc2cc1OC` gave an IC50 in the experiment with A431 (human) of 9.95 µM. With `COc1ccc(Nc2ncnc3cc(OC)c(OCCCSc4nc5ccccc5s4)cc23)cc1`, the IC50 in the experiment on A431 (human) was 14.2 µM.

The compound `CCCCc1nc(Cl)c(CO)n1CCCOc1cc2c(Nc3ccc(Br)cc3CC)ncnc2cc1OC` had an IC50 with A431 (human) of 10.6 µM.

`COc1cc2ncnc(Nc3ccc(C)cc3)c2cc1OCCCSc1nc2ccccc2o1`: the IC50 with A431 (human) amounted to 12.1 µM. This IC50 and that of the compound before are within 1.5-fold of each other. `CCCCc1nc(Cl)c(CO)n1CCCOc1cc2c(Nc3cccc(Br)c3)ncnc2cc1OC`: the IC50 in the experiment on A431 (human) was 8.2 µM. `CCCCc1nc(Cl)c(C=O)n1CCCOc1cc2c(Nc3cccc(Br)c3)ncnc2cc1OC` returned a 50% inhibitory concentration (IC50) in the experiment with A431 (human) of 6.44 µM. This IC50 and that of the compound before are within 1.5-fold of each other. `C#Cc1cccc(Nc2ncnc3cc(OC)c(OCCCn4c(CCCC)nc(Cl)c4CO)cc23)c1` showed an IC50 in the experiment with A431 (human) of 10 µM. On to `CCc1cc(Br)ccc1Nc1ncnc2cc(OC)c(OCCCSc3nc4ccccc4s3)cc12`, for which the half-maximal inhibitory concentration (IC50) with A431 (human) came out at 5.87 µM.

Turning to `CCCCc1nc(Cl)c(C=O)n1CCCOc1cc2c(Nc3cccc(I)c3)ncnc2cc1OC`, the IC50 in the experiment with MCF-7 (human) came out at 32.6 µM; with A431 (human) it was 3 µM.

In the experiment on A431 (human), `COc1cc2ncnc(Nc3ccc(F)c(Cl)c3)c2cc1OCCCSc1nc2ccccc2s1` returned an IC50 of 5.37 µM.
